How the values were obtained:
polysomes = experiment: Fractionation of polysomes on sucrose gradients; type: cell-based, human
Experimental: ML-7, blebbistatin, cytochalasin B, puromycin, and cycloheximide were purchased from Sigma. ML-7 was used at 40 μM, blebbistatin was used at 100 μM, and cytochalasin B was used at 20 μM. Cells were incubated with the drugs for 16 h before analysis. Puromycin (200 μg/ml) and cycloheximide (100 μg/ml) were added to the cells for 2 h. Human lung fibroblasts have been described previously.16 Scleroderma fibroblasts were purchased from the European Collection of Cell Cultures (cell line BM0070) and derived from the skin of a scleroderma patient. MEFs were derived from knock-in mice in which the 5′SL of the collagen α1(I) gene has been mutated (Parsons et al., submitted). Several independent cell isolates were used throughout the study. All cells were cultured in Dulbecco's modified Eagle's medium supplemented with 10% fetal bovine serum for up to 10 passages. Plasmid constructs and adenovirus preparation. The HA-tagged LARP6 clone and the deletion mutants have been described previously.^16 Adenoviruses were constructed by recloning of the constructs into the pAdCMVTRACK vector, followed by recombination with the pAdEasy vector and amplification, as described previously.^48 Expression of each construct was verified by Western blot analysis. The viruses made express both the full-size test protein and the green fluorescent protein (GFP), which is encoded by an independent transcription unit.^48 Expression of GFP served as control for viral transduction. RT-PCR analysis Total cellular RNA was isolated using an RNA isolation kit (Sigma). RT-PCRs were performed with 100 ng of total RNA or using rTth reverse transcriptase (Boca Scientific, Boca Raton, Fla.). [^32P]dCTP was included in the PCR step to label the products, which were resolved on sequencing gels, as described previously.^8,31,49,50 When RNA from polysomal fractions was analyzed, an equal aliquot of each fraction was used. The number of cycles was adjusted to within the linear range of the reaction. The primers used for RT-PCR were as follows: h-collagen α1(I), 5′ primer […] (SEQ ID NO:3) and 3′ primer […] (SEQ ID NO:4); h-collagen α2(I), 5′ primer […] (SEQ ID NO:5) and 3′ primer […] (SEQ ID NO:6).
Polysomes were fractionated as described previously.^16 Sucrose fractions (0.5 ml) were collected, and total RNA was extracted by phenol/chloroform and isopropanol precipitation. Equivalent amounts of each fraction were analyzed by RT-PCR. Total proteins were extracted from sucrose fractions by trichloroacetic acid precipitation, and equivalent amounts were analyzed by Western blot analysis.
One of the roles of nonmuscle myosin filaments may be to present collagen mRNAs to ribosomes. Therefore, we assessed if the association of collagen mRNAs with nonmuscle myosin is dependent on intact polysomes. […] Only the anti-myosin antibody immunoprecipitated collagen α1(I) and α2(I) mRNAs (lane 1). We then immunoprecipitated nonmuscle myosin from lung fibroblasts treated with cycloheximide or puromycin and analyzed if this can change the pull-down of collagen mRNAs. As control, the association with vimentin was analyzed in the same samples (FIG. 9b). […] The association of collagen mRNAs with vimentin increased after the dissociation of polysomes (lanes 3 and 4). […] To assess if nonmuscle myosin copurifies with polysomes, we fractionated polysomes on sucrose gradients^16 and analyzed for the presence of nonmuscle myosin in the fractions using Western blot analysis (FIG. 9f). […]

[1] = tested on: LARP6 and nonmuscle myosin; experiment: Coimmunoprecipitation of nonmuscle myosin IIB with HA-tagged LARP6; type: cell-based, human; conditions: lung fibroblasts; ML-7-treated vs control cells
Experimental: ML-7, blebbistatin, cytochalasin B, puromycin, and cycloheximide were purchased from Sigma. ML-7 was used at 40 μM, blebbistatin was used at 100 μM, and cytochalasin B was used at 20 μM. Cells were incubated with the drugs for 16 h before analysis. Puromycin (200 μg/ml) and cycloheximide (100 μg/ml) were added to the cells for 2 h. Human lung fibroblasts have been described previously.16 Scleroderma fibroblasts were purchased from the European Collection of Cell Cultures (cell line BM0070) and derived from the skin of a scleroderma patient. MEFs were derived from knock-in mice in which the 5′SL of the collagen α1(I) gene has been mutated (Parsons et al., submitted). Several independent cell isolates were used throughout the study. All cells were cultured in Dulbecco's modified Eagle's medium supplemented with 10% fetal bovine serum for up to 10 passages. Plasmid constructs and adenovirus preparation. […] [^32P]dCTP was included in the PCR step to label the products, which were resolved on sequencing gels, as described previously.^8,31,49,50 When RNA from polysomal fractions was analyzed, an equal aliquot of each fraction was used. […]
One of the roles of nonmuscle myosin filaments may be to present collagen mRNAs to ribosomes. Therefore, we assessed if the association of collagen mRNAs with nonmuscle myosin is dependent on intact polysomes. […]

## O=S(=O)(c1cccc2c(I)cccc12)N1CCCNCC1 [ML-7]
polysomes; 15-45% sucrose gradient, Western blot, puromycin or ML-7 treatment
  nonmuscle myosin in polysomal fractions: decrease in the amount of nonmuscle myosin in the heaviest fractions
polysomes; ML-7-treated vs control cells, RT-PCR of fractions
  distribution of collagen α1(I) and α2(I) mRNAs in polysomal fractions: a small fraction of collagen α1(I) and α2(I) mRNAs were shifted into nonpolysomal fractions 16 and 17
polysomes; ML-7 treatment
  overall distribution of polysomes: did not have an effect
polysomes; ML-7 treatment, RT-PCR, sum of all fractions
  total level of collagen α1(I) and α2(I) mRNAs: not significantly affected
[1]
  myosin IIB pulled down with LARP6: significantly less

From US8697385B1, “Protein controlling synthesis of collagen and associated methods” (Florida State University Research Foundation, Inc., priority 2009, dated 2014)
